Assay results taken from patent publication US20250163057A1, “DCN-1 MODULATING COMPOUNDS AND METHODS OF USE THEREOF” (Cellarity, Inc., priority 2023, published 2025).
Where two headings read alike, the source gives them in different places.

Target: DCN1 (DCUND1) protein PONY domain (Homo sapiens (Human), UniProt Q96GG9)
Experiment: TR-FRET assay, DCN1 binding with FAM-labeled probe
How it was run: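 First, the E. coli-derived PONY domain was biotinylated and paired with streptavidin Tb cryptate. Compounds in 0.1% DMSO were then added to DCN1 and FAM-probe (5 nM/20 nM, or 0.31 nM/900 nM total with 800 nM unlabelled) in TritonX, 200 mM NaCl buffer. Finally, TR-FRET ratios were recorded at 1, 5 and 24 hrs.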

[1] = 24 hr after treatment with compound, read-out: TR FRET IC50 24 hr
[2] = TR FRET IC50 1 hr (nM), 1 hr after treatment with compound
[3] = read-out: TR FRET IC50 1 hr, 1 hr after treatment with compound

Sequence of DCN1 (DCUND1) protein PONY domain (Q96GG9 60-248): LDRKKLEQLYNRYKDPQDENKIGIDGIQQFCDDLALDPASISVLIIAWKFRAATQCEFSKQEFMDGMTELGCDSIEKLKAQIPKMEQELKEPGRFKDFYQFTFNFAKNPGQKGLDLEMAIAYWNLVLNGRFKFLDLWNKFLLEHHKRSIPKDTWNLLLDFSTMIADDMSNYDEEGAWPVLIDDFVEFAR

| Structure (SMILES) | IC50 [1] [nM] | IC50 [2] [nM] | IC50 [3] [nM] |
| --- | --- | --- | --- |
| C=C(COC)C(=O)NCc1nn(-c2ccccc2)c2c1[C@@H](c1ccc(F)cc1)[C@H](NC(=O)c1cccc(C(F)(F)F)c1)C(=O)N2CC [Compound I-109] | 200 to 1000 | 200 to 1000 |  |
| CCN1C(=O)[C@@H](NC(=O)c2cccc(C(F)(F)F)c2)[C@@H](C2CC2)c2c(CN(C)C#N)nn(-c3ccccc3)c21 [Compound I-111] | 200 to 1000 | 1000 to 3000 |  |
| C=C(COC)C(=O)NCc1nn(-c2ccccc2)c2c1[C@H](c1ccc(F)cc1)[C@H](NC(=O)c1cccc(C(F)(F)F)c1)C(=O)N2CC [Compound I-113] | 200 to 1000 | 200 to 1000 |  |
| CCN1C(=O)[C@@H](NC(=O)c2cccc(C(F)(F)F)c2)[C@@H](c2ccc(F)cc2)c2c(CNC(=O)C34CC3C4)nn(-c3ccccc3)c21 (stereo partly drawn) [Compound I-114, N-[[(4S, 5S)-7-ethyl-4-(4-fluorophenyl)-6-oxo-1-phenyl-5-[[3-(trifluoromethyl)benzoyl]amino]-4,5-dihydropyrazolo[3,4-b]pyridine-3-yl]methyl]bicyclo[1.1.0]butane-1-carboxamide] | 200 to 1000 | 200 to 1000 |  |
| CCN1C(=O)[C@@H](NC(=O)c2cccc(C(F)(F)F)c2)[C@@H](c2ccc(F)cc2)c2c(C/C=C/C(=O)NCCN(C)C)nn(-c3ccccc3)c21 [Compound I-118] | 200 to 1000 | 200 to 1000 |  |
| CCN1C(=O)[C@@H](NC(=O)c2cccc(C(F)(F)F)c2)[C@@H](c2ccc(F)cc2)c2c(CC/C=C/C(N)=O)nn(-c3ccccc3)c21 [Compound I-124] | 200 to 1000 | 200 to 1000 |  |
| CCN1C(=O)[C@@H](NC(=O)c2cccc(C(F)(F)F)c2)[C@@H](c2ccc(F)cc2)c2c([C@@H](O)CNC#N)nn(-c3ccccc3)c21 [Compound I-130] | 200 to 1000 | 200 to 1000 |  |
| CCN1C(=O)[C@@H](NC(=O)c2cccc(C(F)(F)F)c2)[C@@H](c2ccc(F)cc2)c2c(CNC(=O)C3=C(C(=O)OC)CCC3)nn(-c3ccccc3)c21 [Compound I-135] | 200 to 1000 | 200 to 1000 |  |
| C[C@@H](NC#N)c1nn(-c2ccccc2)c2c1[C@H](c1ccc(F)cc1)[C@H](NC(=O)c1cccc(C(F)(F)F)c1)C(=O)N2CCOP(=O)(O)O [Compound I-162] | ≤ 200 |  | ≤ 200 |
| CCN1C(=O)[C@@H](NC(=O)C2(c3ccccc3)CC2)[C@@H](C2CC2)c2c(C(=O)N3[C@H](C#N)C[C@H]4C[C@H]43)nn(C3CCOCC3)c21 [Compound I-419] | 1000 to 3000 | 1000 to 3000 |  |
| CCN1C(=O)[C@@H](NC(=O)C2CCN(C)CC2)[C@@H](C2CC2)c2c(C(=O)N3[C@H](C#N)C[C@H]4C[C@H]43)nn(C3CCOCC3)c21 [Compound I-423] | 1000 to 3000 | 1000 to 3000 |  |
| CCN1C(=O)[C@@H](NC(=O)CC(C)(C)C)[C@@H](C2CC2)c2c(C(=O)N3[C@H](C#N)C[C@H]4C[C@H]43)nn(C3CCOCC3)c21 [Compound I-424] | 1000 to 3000 | 1000 to 3000 |  |
| CCN1C(=O)[C@@H](NC(=O)CCc2cnn(C)c2)[C@@H](C2CC2)c2c(C(=O)N3[C@H](C#N)C[C@H]4C[C@H]43)nn(C3CCOCC3)c21 [Compound I-433] | 1000 to 3000 | 1000 to 3000 |  |
| CCN1C(=O)[C@@H](NC(=O)C2CC(=O)N(Cc3ccccc3)C2)[C@@H](C2CC2)c2c(C(=O)N3[C@H](C#N)C[C@H]4C[C@H]43)nn(C3CCOCC3)c21 (stereo partly shown) [Compound I-435] | 1000 to 3000 | 1000 to 3000 |  |
| CCN1C(=O)[C@@H](NC(=O)C(C)c2cccc(F)c2)[C@@H](C2CC2)c2c(C(=O)N3[C@H](C#N)C[C@H]4C[C@H]43)nn(C3CCOCC3)c21 (stereo partly shown) [Compound I-440] | 1000 to 3000 | 1000 to 3000 |  |
| CCN1C(=O)[C@@H](CC(=O)CC2CC2)[C@@H](C2CC2)c2c(C(=O)N3[C@H](C#N)C[C@H]4C[C@H]43)nn(C3CCOCC3)c21 [Compound I-466] | 1000 to 3000 | 1000 to 3000 |  |
| CCN1C(=O)[C@@H](NC(=O)c2cccc(C(F)(F)F)c2C)[C@@H](C2CC2)c2c(C(=O)N3[C@H](C#N)C[C@H]4C[C@H]43)nn(C3CCOCC3)c21 [Compound I-468] | ≤ 200 |  | ≤ 200 |
| CCN1C(=O)[C@@H](NC(=O)c2sc(NC(C)=O)nc2C)[C@@H](C2CC2)c2c(C(=O)N3[C@H](C#N)C[C@H]4C[C@H]43)nn(C3CCOCC3)c21 [Compound I-471] | 1000 to 3000 | 1000 to 3000 |  |
| CCN1C(=O)[C@@H](NC(=O)c2ccn(C(C)C)n2)[C@@H](C2CC2)c2c(C(=O)N3[C@H](C#N)C[C@H]4C[C@H]43)nn(C3CCOCC3)c21 [Compound I-472] | ≤ 200 | 200 to 1000 |  |
| CCN1C(=O)[C@@H](NC(=O)c2c(Cl)cccc2Cl)[C@@H](C2CC2)c2c(C(=O)N3[C@H](C#N)C[C@H]4C[C@H]43)nn(C3CCOCC3)c21 [Compound I-473] | 1000 to 3000 | 1000 to 3000 |  |
| CCN1C(=O)[C@@H](NC(=O)c2cc(S(C)(=O)=O)ccc2F)[C@@H](C2CC2)c2c(C(=O)N3[C@H](C#N)C[C@H]4C[C@H]43)nn(C3CCOCC3)c21 [Compound I-475] | 1000 to 3000 | 1000 to 3000 |  |

| Structure (SMILES) | IC50 [1] [nM] | IC50 [2] [nM] | IC50 [3] [nM] |
| --- | --- | --- | --- |
| CCN1C(=O)[C@@H](NC(=O)c2ccc(F)c(F)c2OC)[C@@H](C2CC2)c2c(C(=O)N3[C@H](C#N)C[C@H]4C[C@H]43)nn(C3CCOCC3)c21 [Compound I-502] | 200 to 1000 | 1000 to 3000 |  |
| CCN1C(=O)[C@@H](NC(=O)CC2=C(C)Cc3ccc(F)cc32)[C@@H](C2CC2)c2c(C(=O)N3[C@H](C#N)C[C@H]4C[C@H]43)nn(C3CCOCC3)c21 [Compound I-504] | 1000 to 3000 | 1000 to 3000 |  |
| CCN1C(=O)[C@@H](NC(=O)c2cccc(N3CCCC3=O)c2)[C@@H](C2CC2)c2c(C(=O)N3[C@H](C#N)C[C@H]4C[C@H]43)nn(C3CCOCC3)c21 [Compound I-505] | 1000 to 3000 | 1000 to 3000 |  |
| CCN1C(=O)[C@@H](NC(=O)c2cnn(CC(F)(F)F)c2)[C@@H](C2CC2)c2c(C(=O)N3[C@H](C#N)C[C@H]4C[C@H]43)nn(C3CCOCC3)c21 [Compound I-507] | 1000 to 3000 | 1000 to 3000 |  |
| CCN1C(=O)[C@@H](NC(=O)c2ccc(C3CC3)cc2)[C@@H](C2CC2)c2c(C(=O)N3[C@H](C#N)C[C@H]4C[C@H]43)nn(C3CCOCC3)c21 [Compound I-508] | ≤ 200 | 1000 to 3000 |  |
| CCN1C(=O)[C@@H](NC(=O)CN2C(=O)CSc3ccccc32)[C@@H](C2CC2)c2c(C(=O)N3[C@H](C#N)C[C@H]4C[C@H]43)nn(C3CCOCC3)c21 [Compound I-510] | 1000 to 3000 | 1000 to 3000 |  |
| CCN1C(=O)[C@@H](NC(=O)Cc2ccc(C)cc2C)[C@@H](C2CC2)c2c(C(=O)N3[C@H](C#N)C[C@H]4C[C@H]43)nn(C3CCOCC3)c21 [Compound I-511] | 1000 to 3000 | 1000 to 3000 |  |
| CCN1C(=O)[C@@H](NC(=O)c2nc3c(s2)CN(C)CC3)[C@@H](C2CC2)c2c(C(=O)N3[C@H](C#N)C[C@H]4C[C@H]43)nn(C3CCOCC3)c21 [Compound I-512] | 1000 to 3000 | 1000 to 3000 |  |
| CCN1C(=O)[C@@H](NC(=O)c2cnc(C(F)(F)F)s2)[C@@H](C2CC2)c2c(C(=O)N3[C@H](C#N)C[C@H]4C[C@H]43)nn(C3CCOCC3)c21 [Compound I-513] | 1000 to 3000 | 1000 to 3000 |  |
| CCN1C(=O)[C@@H](NC(=O)C2CC2C(F)(F)F)[C@@H](C2CC2)c2c(C(=O)N3[C@H](C#N)C[C@H]4C[C@H]43)nn(C3CCOCC3)c21 (stereo partly shown) [Compound I-523] | 1000 to 3000 | 1000 to 3000 |  |
| CCN1C(=O)[C@@H](NC(=O)CS(C)(=O)=O)[C@@H](C2CC2)c2c(C(=O)N3[C@H](C#N)C[C@H]4C[C@H]43)nn(C3CCOCC3)c21 [Compound I-546] | 1000 to 3000 | 1000 to 3000 |  |
| CCN1C(=O)[C@@H](NC(=O)c2ccc3c(c2)CCO3)[C@@H](C2CC2)c2c(C(=O)N3[C@H](C#N)C[C@H]4C[C@H]43)nn(C3CCOCC3)c21 [Compound I-547] | ≤ 200 | 200 to 1000 |  |
| CCN1C(=O)[C@@H](NC(=O)c2ccccc2)[C@@H](C2CC2)c2c(C(=O)N3[C@H](C#N)C[C@H]4C[C@H]43)nn(C3CCOCC3)c21 [Compound I-553] | ≤ 200 | 200 to 1000 |  |
| CCN1C(=O)[C@@H](NC(=O)COc2ccc3c(c2)CCC3)[C@@H](C2CC2)c2c(C(=O)N3[C@H](C#N)C[C@H]4C[C@H]43)nn(C3CCOCC3)c21 [Compound I-554] | 1000 to 3000 | 1000 to 3000 |  |
| CCN1C(=O)[C@@H](NC(=O)CC#N)[C@@H](C2CC2)c2c(C(=O)N3[C@H](C#N)C[C@H]4C[C@H]43)nn(C3CCOCC3)c21 [Compound I-555] | 1000 to 3000 | 1000 to 3000 |  |
| CCN1C(=O)[C@@H](NC(=O)CCN2C(=O)COc3ccccc32)[C@@H](C2CC2)c2c(C(=O)N3[C@H](C#N)C[C@H]4C[C@H]43)nn(C3CCOCC3)c21 [Compound I-556] | 1000 to 3000 | 1000 to 3000 |  |
| CCN1C(=O)[C@@H](NC(=O)c2ccc(N3CCN(C)CC3)cn2)[C@@H](C2CC2)c2c(C(=O)N3[C@H](C#N)C[C@H]4C[C@H]43)nn(C3CCOCC3)c21 [Compound I-588] | 1000 to 3000 | 1000 to 3000 |  |
| CCN1C(=O)[C@@H](NC(=O)c2cncc(C(F)(F)F)n2)[C@@H](C2CC2)c2c(C(=O)N3[C@H](C#N)C[C@H]4C[C@H]43)nn(C3CCOCC3)c21 [Compound I-590] | 1000 to 3000 | 1000 to 3000 |  |
| CCN1C(=O)[C@@H](NC(=O)C2=NN(c3ccccc3)C(=O)C2)[C@@H](C2CC2)c2c(C(=O)N3[C@H](C#N)C[C@H]4C[C@H]43)nn(C3CCOCC3)c21 [Compound I-591] | 1000 to 3000 | 1000 to 3000 |  |
| CCN1C(=O)[C@@H](NC(=O)Cc2cccc(C(F)(F)F)c2)[C@@H](C2CC2)c2c(C(=O)N3[C@H](C#N)C[C@H]4C[C@H]43)nn(C3CCOCC3)c21 [Compound I-592] | 1000 to 3000 | 1000 to 3000 |  |
